According to ChEMBL document CHEMBL1126449, “Synthesis and anti-acetylcholinesterase activity of 1-benzyl-4-[(5,6-dimethoxy-1-indanon-2-yl)methyl]piperidine hydrochloride (E2020) and related compounds” (Bioorg Med Chem Lett, 1992):

Target: T1, Acetylcholinesterase (Mus musculus, UniProt P21836)
T1 sequence (P21836 whole entry): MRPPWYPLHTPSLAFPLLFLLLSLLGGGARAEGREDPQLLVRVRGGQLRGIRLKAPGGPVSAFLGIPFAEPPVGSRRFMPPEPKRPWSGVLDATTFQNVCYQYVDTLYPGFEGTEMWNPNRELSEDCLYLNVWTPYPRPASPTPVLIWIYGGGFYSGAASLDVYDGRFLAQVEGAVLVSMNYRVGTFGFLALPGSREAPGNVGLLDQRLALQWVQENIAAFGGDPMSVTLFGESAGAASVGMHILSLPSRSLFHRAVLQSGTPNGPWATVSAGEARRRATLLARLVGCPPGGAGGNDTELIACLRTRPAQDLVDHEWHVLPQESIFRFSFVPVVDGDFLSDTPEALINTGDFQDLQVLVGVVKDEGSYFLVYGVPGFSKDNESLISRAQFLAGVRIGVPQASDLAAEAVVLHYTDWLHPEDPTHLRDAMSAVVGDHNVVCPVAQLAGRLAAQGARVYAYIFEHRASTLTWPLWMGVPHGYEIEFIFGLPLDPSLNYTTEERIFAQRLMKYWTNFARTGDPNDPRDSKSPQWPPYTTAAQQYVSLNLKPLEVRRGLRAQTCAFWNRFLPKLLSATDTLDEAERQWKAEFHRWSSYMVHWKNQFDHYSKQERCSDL
Assay: biochemical
Description: Inhibition of Acetylcholinesterase activity in mouse brain homogenate

Row | SMILES | IC50
1 | COc1cc2c(cc1OC)C(=O)/C(=C/C1CCN(Cc3ccccc3)CC1)C2 | 13 nM
2 | COc1cc2c(cc1OC)C(=O)C(CC1CCN(Cc3cccc(C)c3)CC1)C2 (configuration not stated) | 2.7 nM
3 | COc1cc2c(cc1OC)C(=O)C(CC1CCN(Cc3ccc([N+](=O)[O-])cc3)CC1)C2 (configuration not stated) | 100 nM
4 | COc1cc2c(cc1OC)CC(CC1CCN(Cc3ccccc3)CC1)=C2 | 4400 nM
5 | COc1cc2c(cc1OC)C(=O)C(CC1CCN(Cc3ccccc3C)CC1)C2 (configuration not stated) | 10 nM
6 | COc1cc2c(cc1OC)C(=O)/C(=C/CC1CCN(Cc3ccccc3)CC1)C2 | 150 nM
7 | COc1cc2c(cc1OC)C(=O)C(CC1CCN(CC3CCCCC3)CC1)C2 (configuration not stated) | 8.9 nM
8 | COc1cc2c(cc1OC)C(=O)C(CC1CCN(CCc3ccccc3)CC1)C2 (configuration not stated) | 180 nM
9 | COc1cc2c(cc1OC)C(=O)C(CN1CCN(Cc3ccccc3)CC1)C2 (configuration not stated) | 94 nM
10 | COc1cc2c(cc1OC)C(O)C(CC1CCN(Cc3ccccc3)CC1)C2 (configuration not stated) | 300 nM
11 | COc1cc2c(cc1OC)C(=O)C(CC1CCN(Cc3cccc([N+](=O)[O-])c3)CC1)C2 (configuration not stated) | 4 nM
12 | COc1cc2c(cc1OC)C(=O)C(CC1CCN(C(=O)c3ccccc3)CC1)C2 (configuration not stated) | > 10000 nM
